In patent publication US10508109B2 (priority 2015, dated 2019):
Read-outs that look alike come from different tables or passages of the source.

Experiments:
A549 = test: Cell-based assay, anti-proliferative activity (Cell Counting Kit-8, 72 hours); settings: read-out: IC50 (μM) A549
Outline: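 Growth read-out after inhibitor treatment of plated cells; potency expressed as IC50.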

CCD-18Co = test: as above; settings: read-out: IC50 (μM) CCD-18Co
Outline: (§1)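 CCK-8 growth read-out at 72 h post compound exposure; 96-well seeding. IC50 from 8-point dilution (0–100 micro-M, twofold steps from 1.5625 micro-M).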

HCT-116 = test: as above; settings: read-out: IC50 (μM) HCT-116
Outline: as §1

HFL1 = test: as above; settings: read-out: IC50 (μM) HFL1
Outline: as §1

PC14 = test: as above; settings: read-out: IC50 (μM) PC14
Outline: as §1

SUV39H2 = SUV39H2 (Homo sapiens (Human), UniProt Q9H5I1); settings: read-out: IC50 (μM) Suv 39H2 assay; enzyme assay
Chain of SUV39H2 (Q9H5I1 whole entry): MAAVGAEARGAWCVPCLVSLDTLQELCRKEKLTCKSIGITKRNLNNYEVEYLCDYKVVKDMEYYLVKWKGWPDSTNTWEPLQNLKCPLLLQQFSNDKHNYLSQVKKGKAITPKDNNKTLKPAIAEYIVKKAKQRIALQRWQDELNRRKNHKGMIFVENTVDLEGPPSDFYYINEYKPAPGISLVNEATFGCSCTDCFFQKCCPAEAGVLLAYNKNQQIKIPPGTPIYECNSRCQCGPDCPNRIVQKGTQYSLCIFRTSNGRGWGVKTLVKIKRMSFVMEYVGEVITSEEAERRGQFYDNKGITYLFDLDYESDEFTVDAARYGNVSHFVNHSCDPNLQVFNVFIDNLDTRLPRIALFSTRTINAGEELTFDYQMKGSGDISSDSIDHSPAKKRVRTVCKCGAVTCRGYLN

[1] = Homo sapiens, A549 cells, Cell Counting Kit-8, 72 hours
[2] = Homo sapiens, CCD-18Co cells, Cell Counting Kit-8, 72 hours
[3] = Homo sapiens, HCT-116 cells, Cell Counting Kit-8, 72 hours
[4] = Homo sapiens, HFL1 cells, Cell Counting Kit-8, 72 hours
[5] = Homo sapiens, PC-14, PC14 cells, Cell Counting Kit-8, 72 hours
[6] = Homo sapiens, A549 cells, 72 hours, Cell Counting Kit-8
[7] = Homo sapiens, CCD-18Co cells, 72 hours, Cell Counting Kit-8
[8] = Homo sapiens, HCT-116 cells, 72 hours, Cell Counting Kit-8
[9] = Homo sapiens, HFL1 cells, 72 hours, Cell Counting Kit-8
[10] = Homo sapiens, PC-14, PC14 cells, 72 hours, Cell Counting Kit-8

Molecule: COc1cc(OC)c(-c2cn3ccc(N4CCCN(S(=O)(=O)N(C)C)CC4)cc3n2)cc1Cl [Example 200, 4-[2-(5-chloro-2,4-dimethoxyphenyl)imidazo[1,2-a]pyridin-7-yl]-N,N-dimethyl-1,4-diazepane-1-sulfonamide]
- IC50 (A549; [1]): 1.6 µM
- IC50 (CCD-18Co; [2]): 3 µM
- IC50 (HCT-116; [3]): 2 µM
- IC50 (HFL1; [4]): 1.7 µM
- IC50 (PC14; [5]): 1.3 µM
- IC50 (SUV39H2): 0.00674 µM

Molecule: COc1cc(OC)c(-c2cn3ccc(N4CCN(CCC(N)=O)CC4)cc3n2)cc1Cl [Example 137, 3-(4-(2-(5-chloro-2,4-dimethoxyphenyl)imidazo[1,2-a]pyridin-7-yl)piperazin-1-yl)propanamide]
- IC50 (A549; [1]): 24 µM
- IC50 (CCD-18Co; [2]): 14 µM
- IC50 (HCT-116; [3]): 14 µM
- IC50 (HFL1; [4]): 13 µM
- IC50 (PC14; [5]): 12 µM
- IC50 (SUV39H2): 0.00454 µM

Molecule: COc1cc(OC)c(-c2nc3cc(N4CCN(C(=O)OC(C)(C)C)CC4)ccn3c2Br)cc1Cl [Example 271, tert-butyl 4-(3-bromo-2-(5-chloro-2,4-dimethoxy-phenyl)imidazo[1,2-a]pyridin-7-yl)piperazine-1-carboxylate]
- IC50 (A549; [6]): 1.3 µM
- IC50 (CCD-18Co; [7]): 1.4 µM
- IC50 (HCT-116; [8]): 1.5 µM
- IC50 (HFL1; [9]): 1.2 µM
- IC50 (PC14; [10]): 0.57 µM
- IC50 (SUV39H2): 0.0267 µM

Molecule: COc1cc(OCCCN(C)C)c(-c2cn3ccc(N4CCN(S(=O)(=O)N(C)C)CC4)cc3n2)cc1Cl [Example 196, 4-(2-{5-Chloro-2-[3-(dimethylamino)propoxy]-4-methoxyphenyl}imidazo[1,2-a]pyridin-7-yl)-N,N-dimethylpiperazine-1-sulfonamide]
- IC50 (A549; [1]): 2.1 µM
- IC50 (CCD-18Co; [2]): 2.8 µM
- IC50 (HCT-116; [3]): 2.2 µM
- IC50 (HFL1; [4]): 2.4 µM
- IC50 (PC14; [5]): 1.9 µM
- IC50 (SUV39H2): 0.0147 µM

Molecule: COc1cc(OC)c(-c2cn3ccc(N4CCN(c5ccnc(N(C)C)n5)CC4)cc3n2)cc1Cl [Example 297, 4-(4-(2-(5-chloro-2,4-dimethoxyphenyl)imidazo[1,2-a]pyridin-7-yl)-piperazin-1-yl)-N,N-dimethylpyrimidin-2-amine]
- IC50 (A549; [6]): 0.43 µM
- IC50 (CCD-18Co; [7]): 0.72 µM
- IC50 (HCT-116; [8]): 0.33 µM
- IC50 (HFL1; [9]): 0.65 µM
- IC50 (PC14; [10]): 0.47 µM
- IC50 (SUV39H2): 0.0342 µM

Molecule: 4-(2-(5-chloro-2,4-dimethoxyphenyl)imidazo[1,2-a]pyridin-7-yl)-N-(pyrrolidin-2-ylmethyl)benzamide [Example 249]
- IC50 (A549; A549 cells, 72 hours, Cell Counting Kit-8): 5.4 µM
- IC50 (CCD-18Co; CCD-18Co cells, 72 hours, Cell Counting Kit-8): 5.2 µM
- IC50 (HCT-116; HCT-116 cells, 72 hours, Cell Counting Kit-8): 3.7 µM
- IC50 (HFL1; HFL1 cells, 72 hours, Cell Counting Kit-8): 5.4 µM
- IC50 (PC14; PC14 cells, 72 hours, Cell Counting Kit-8): 4.8 µM
- IC50 (SUV39H2): 0.035 µM

Molecule: COc1cc(OCCCN(C)C)c(-c2cn3ccc(N4CCCC4)cc3n2)cc1Cl [Example 80, 3-{4-chloro-5-methoxy-2-[7-(pyrrolidin-1-yl)imidazo[1,2-a]pyridin-2-yl]-phenoxy}-N,N-dimethylpropan-1-amine]
- IC50 (A549; [1]): 1.6 µM
- IC50 (CCD-18Co; [2]): 1.8 µM
- IC50 (HCT-116; [3]): 1.1 µM
- IC50 (HFL1; [4]): 0.85 µM
- IC50 (PC14; [5]): 1.7 µM
- IC50 (SUV39H2): 0.00531 µM

Molecule: COc1cc(OC)c(-c2cn3ccc(N4CCN(c5ccccc5)CC4)cc3n2)cc1Cl [Example 282, 2-(5-chloro-2,4-dimethoxyphenyl)-7-(4-phenylpiperazin-1-yl)-imidazo[1,2-a]pyridine]
- IC50 (A549; [6]): 1.5 µM
- IC50 (CCD-18Co; [7]): 1.5 µM
- IC50 (HCT-116; [8]): 1.4 µM
- IC50 (HFL1; [9]): 1.4 µM
- IC50 (PC14; [10]): 0.96 µM
- IC50 (SUV39H2): 0.0349 µM

Molecule: COc1cc(Cl)c(Cl)cc1-c1cn2ccc(N3CCCC3)cc2n1 [Example 233, 2-(4,5-dichloro-2-methoxyphenyl)-7-(pyrrolidin-1-yl)imidazo[1,2-a]-pyridine]
- IC50 (A549; [6]): 2.6 µM
- IC50 (CCD-18Co; [7]): 2.8 µM
- IC50 (HCT-116; [8]): 2.7 µM
- IC50 (HFL1; [9]): 2.7 µM
- IC50 (PC14; [10]): 1.8 µM
- IC50 (SUV39H2): 0.085 µM

Molecule: COc1cc(OC)c(-c2cn3ccc(NC(=O)CN)cc3n2)cc1Cl [Example 166, 2-amino-N-(2-(5-chloro-2,4-dimethoxyphenyl)imidazo[1,2-a]pyridin-7-yl)-acetamide]
- IC50 (A549; Homo sapiens, A549, 72 h): 7.1 µM
- IC50 (CCD-18Co; Homo sapiens, CCD-18Co, 72 h): 7.9 µM
- IC50 (HCT-116; Homo sapiens, HCT-116, 72 h): 6.1 µM
- IC50 (HFL1; Homo sapiens, HFL1, 72 h): 22 µM
- IC50 (PC14; Homo sapiens, PC-14, 72 h): 6.5 µM
- IC50 (SUV39H2): 0.031 µM

Molecule: COc1cc(OC)c(-c2cn3ccc(N4CCN(S(=O)(=O)N(C)C)CC4)nc3n2)cc1Cl [Example 180, 4-[2-(5-chloro-2,4-dimethoxyphenyl)imidazo[1,2-a]pyrimidin-7-yl]-N,N-dimethylpiperazine-1-sulfonamide]
- IC50 (A549; [1]): 1.1 µM
- IC50 (CCD-18Co; [2]): 2.6 µM
- IC50 (HCT-116; [3]): 1.5 µM
- IC50 (HFL1; [4]): 1.7 µM
- IC50 (PC14; [5]): 1.6 µM
- IC50 (SUV39H2): 0.0241 µM

Molecule: COc1cc(OC)c(-c2cn3ccc(C4=CCN(P(=O)(OC)OC)CC4)cc3n2)cc1Cl [Example 195, dimethyl{4-[2-(5-chloro-2,4-dimethoxyphenyl)imidazo[1,2-a]pyridin-7-yl]-5,6-dihydropyridin-1(2H)-yl}phosphonate]
- IC50 (A549; Homo sapiens, A549, 72 h): 0.7 µM
- IC50 (CCD-18Co; Homo sapiens, CCD-18Co, 72 h): 5.5 µM
- IC50 (HCT-116; Homo sapiens, HCT-116, 72 h): 0.93 µM
- IC50 (HFL1; Homo sapiens, HFL1, 72 h): 2.8 µM
- IC50 (PC14; Homo sapiens, PC-14, 72 h): 0.51 µM
- IC50 (SUV39H2): 0.0375 µM

Molecule: COc1cc(OC)c(-c2cn3ccc(N4CCN(Cc5ccncc5)CC4)cc3n2)cc1Cl [Example 292, 2-(5-chloro-2,4-dimethoxyphenyl)-7-(4-(pyridin-4-ylmethyl)piperazin-1-yl)imidazo[1,2-a]pyridine]
- IC50 (A549; [6]): 1.2 µM
- IC50 (CCD-18Co; [7]): 1.3 µM
- IC50 (HCT-116; [8]): 1.3 µM
- IC50 (HFL1; [9]): 1.2 µM
- IC50 (PC14; [10]): 0.68 µM
- IC50 (SUV39H2): 0.00637 µM

Molecule: COc1cc(OC)c(-c2cn3ccc(N4CCN(S(=O)(=O)C5CC5)CC4)cc3n2)cc1Cl [Example 103, 2-(5-chloro-2,4-dimethoxyphenyl)-7-[4-(cyclopropylsulfonyl)piperazin-1-yl]imidazo[1,2-a]pyridine]
- IC50 (A549; [1]): 1.3 µM
- IC50 (CCD-18Co; [2]): 1.6 µM
- IC50 (HCT-116; [3]): 0.55 µM
- IC50 (HFL1; [4]): 0.61 µM
- IC50 (PC14; [5]): 0.7 µM
- IC50 (SUV39H2): 0.0103 µM

Molecule: COc1cc(OC)c(-c2cn3ccc(-c4ccc(C(=O)N5CCC(N)CC5)cc4)cc3n2)cc1Cl [Example 259, (4-aminopiperidin-1-yl)(4-(2-(5-chloro-2,4-dimethoxyphenyl)imidazo[1,2-a]pyridin-7-yl)phenyl)methanone]
- IC50 (A549; [6]): 10 µM
- IC50 (CCD-18Co; [7]): 10 µM
- IC50 (HCT-116; [8]): 7.3 µM
- IC50 (HFL1; [9]): 8.6 µM
- IC50 (PC14; [10]): 7.9 µM
- IC50 (SUV39H2): 0.0586 µM

Molecule: COC(=O)N1CCN(c2ccn3cc(-c4cc(Cl)c(OC)cc4OC)nc3n2)CC1 [Example 159, methyl 4-(2-(5-chloro-2,4-dimethoxyphenyl)imidazo[1,2-a]pyrimidin-7-yl)piperazine-1-carboxylate]
- IC50 (A549; [1]): 2.7 µM
- IC50 (CCD-18Co; [2]): 3.7 µM
- IC50 (HCT-116; [3]): 3.2 µM
- IC50 (HFL1; [4]): 3.4 µM
- IC50 (PC14; [5]): 4.7 µM
- IC50 (SUV39H2): 0.0157 µM

Molecule: COc1cc(OC)c(-c2cn3ccc(N4CCN(CCCN(C)C)CC4)cc3n2)cc1Br [Example 130, 3-(4-(2-(5-bromo-2,4-dimethoxyphenyl)imidazo[1,2-a]pyridin-7-yl)-piperazin-1-yl)-N,N-dimethylpropan-1-amine]
- IC50 (A549; [1]): 2.7 µM
- IC50 (CCD-18Co; [2]): 6.6 µM
- IC50 (HCT-116; [3]): 2.8 µM
- IC50 (HFL1; [4]): 4.6 µM
- IC50 (PC14; [5]): 2.6 µM
- IC50 (SUV39H2): 0.003 µM

Molecule: COc1cc(OCCCN(C)C)c(-c2cn3ccc(N4CCC(N)CC4)cc3n2)cc1Cl [Example 150, 1-(2-{5-chloro-2-[3-(dimethylamino)propoxy]-4-methoxyphenyl}-imidazo[1,2-a]pyridin-7-yl)piperidin-4-amine]
- IC50 (A549; [1]): 2.3 µM
- IC50 (CCD-18Co; [2]): 2.4 µM
- IC50 (HCT-116; [3]): 2.1 µM
- IC50 (HFL1; [4]): 0.86 µM
- IC50 (PC14; [5]): 2.2 µM
- IC50 (SUV39H2): 0.035 µM

Molecule: COc1cc(OC)c(-c2cn3ccc(NC(=O)[C@@H](N)C(C)C)cc3n2)cc1Cl [Example 252, (S)-2-amino-N-(2-(5-chloro-2,4-dimethoxyphenyl)imidazo[1,2-a]pyridin-7-yl)-3-methylbutanamide]
- IC50 (A549; Homo sapiens, A549, 72 h): 7.8 µM
- IC50 (CCD-18Co; Homo sapiens, CCD-18Co, 72 h): 4.7 µM
- IC50 (HCT-116; Homo sapiens, HCT-116, 72 h): 5.4 µM
- IC50 (HFL1; Homo sapiens, HFL1, 72 h): 5.9 µM
- IC50 (PC14; Homo sapiens, PC-14, 72 h): 6.3 µM
- IC50 (SUV39H2): 0.0423 µM

Molecule: COc1ccc(CN[C@H]2CCN(c3ccn4cc(-c5cc(Cl)c(OC)cc5OC)nc4c3)C2)cc1 [Example 306, (S)-1-(2-(5-chloro-2,4-dimethoxyphenyl)imidazo[1,2-a]pyridin-7-yl)-N-(4-methoxybenzyl)pyrrolidin-3-amine]
- IC50 (A549; [6]): 1.3 µM
- IC50 (CCD-18Co; [7]): 1.4 µM
- IC50 (HCT-116; [8]): 0.69 µM
- IC50 (HFL1; [9]): 0.72 µM
- IC50 (PC14; [10]): 1.4 µM
- IC50 (SUV39H2): 0.00881 µM
